Consider one molecule from patent publication US20090048328A1, “Compound Comprising Prodigiosin From Serratia Macescence B-1231 Kctc 0386Bp for Prevention and Treatment of Acute Graft-Versus-Host Disease” (priority 2005, published 2009).

Experiment [1] concerns IL-2 receptors (IL-2R alpha). The experiment is described as follows: Expression of IL-2 receptor (IL-2R alpha) mRNA in ConA-activated T-cells, RT-PCR. It counts as cell-based, C57BL/6 mouse. The settings on record: 1 μg/ml ConA, 4 hours, 3, 10, 30 ng/ml compound.
The test system of the next experiment is B-cells. The experiment is described as follows: Lipopolysaccharide-induced B-cell proliferation, [3H]-thymidine incorporation. Particulars: 1 μg/ml lipopolysaccharide; 3, 10, 30 ng/ml compound. It counts as cell-based, C57BL/6 mouse. The procedure:
(§1) T-cells were separated from the spleen of the C57BL/6 mouse for the experiment. 1 μg/ml concanavalin A (ConA) was used to generate the proliferation of T-cells, and 1 μg/ml lypopolysaccaride induced proliferation of the B-cells. The prodigiosin separated in Execution Example 1 was melted in dimethyl sulfoxide (DMSO) and was added to the culture medium in a manner to achieve a final concentration of 3, 10, 30 ng/ml. After 60 hours of cultivation, [^3H]-thymidine was added to the culture medium with a concentration of 1 μCi/well. After 12 hours, the cells were collected and the amount of radioactivity in the DNA was measured.
Background: Incorporation of labelled thymidine or its analogues reports DNA synthesis.

Another experiment relates to IL-2 mRNA. The experiment is described as follows: Expression of IL-2 mRNA in ConA-activated T-cells, RT-PCR. It counts as cell-based, C57BL/6 mouse. The settings on record: 1 μg/ml ConA, 4 hours, 3, 10, 30 ng/ml compound. The procedure:
T-cells were separated from the spleen of the C57BL/6 mouse for the experiment. 1 μg/m ConA was used to activate the T-cells. […]. After 4 hours of cultivation, the cells were collected. After separating the RNA from the cells, the degree of expression of IL-2 mRNA was measured through RT-PCR (reverse transcription-polymerase chain reaction).

In the next experiment the test system is IL-2 dependent T-cells. The experiment is described as follows: IL-2-dependent T-cell proliferation (ConA pre-treated cells), [3H]-thymidine incorporation. It is filed as cell-based, C57BL/6 mouse. Particulars: cells pre-treated with 1 μg/ml ConA 48 hours, washed, 10 unit/ml IL-2; 3, 10, 30 ng/ml compound. The procedure:
In order to measure IL-2 dependent T-cell proliferation, T-cells separated from the spleen of the mouse were treated with 1 μg/ml ConA for 48 hours. Then, the cells were washed three times to get rid of all ConA for further experiment. […] 10 unit/ml IL-2 was added to the pre-treated cells to induce T-cell proliferation (IL-2-dependent T cell proliferation).
Prodigiosin was melted in DMSO and added to the culture medium in a manner to achieve a final concentration of 3, 10, 30 ng/ml. After 60 hours of cultivation, [^3H]-thymidine was added to the culture medium with a concentration of 1 μCi/well. After 12 hours, the cells were collected and the amount of radioactivity in the DNA was measured.
In order to measure IL-2 dependent T-cell proliferation, T-cells separated from the spleen of the mouse were treated with 1 μg/ml ConA for 48 hours. Then, the cells were washed three times to get rid of all the ConA for further experiment. […] 10 unit/ml IL-2 was added to the pre-treated cells to induce T-cell proliferation (IL-2-dependent T-cell proliferation).
After 60 hours of cultivation, [^3H]-thymidine was added to the culture medium with a concentration of 1 μCi/well. After 12 hours, the cells were collected and the amount of radioactivity in the DNA was measured.

In experiment [2] the test system is acute graft-versus-host disease. It counts as in vivo, Balb/c mouse. Particulars: 1 mg/kg, peritoneal injections every other day; weight loss from 2nd to 6th day, regain from 7th day; control mice lost weight up to 9th day and died. An excerpt:
(§2) To induce acute graft-versus-host disease, bone marrow cells (5×10^7 cells) and spleen cells (1×10^7 cells) of the C57BL/6 mouse were transplanted to the Balb/c mouse, which had been irradiated and had lost immune function.

Experiment [3] has as its system T-cells. The experiment is described as follows: T-cell proliferation induced by ConA plus added IL-2, [3H]-thymidine incorporation. It is filed as cell-based, C57BL/6 mouse. Particulars: 1 μg/ml ConA and 10 unit/ml IL-2; 3, 10, 30 ng/ml compound. Here is the method: T-cells were separated from the spleen of the C57BL/6 mouse for the experiment. 1 μg/ml ConA and 10 unit/ml IL-2 were used to generate the proliferation of T-cells. In the control group, 1 μg/ml ConA induced the proliferation of T-cells. Prodigiosin was melted in DMSO and added to the culture medium in a manner to achieve a final concentration of 3, 10, 30 ng/ml. After 60 hours of cultivation, [^3H]-thymidine was added to the culture medium with a concentration of 1 μCi/well. After 12 hours, the cells were collected and the amount of radioactivity in the DNA was measured.
T-cells were separated from the spleen of the C57BL/6 mouse for the experiment. 1 μg/ml ConA and 10 unit/ml IL-2 were used to generate the proliferation of T-cells. In the control group, 1 μg/ml ConA induced the proliferation of T-cells. […] After 60 hours of cultivation, [^3H]-thymidine was added to the culture medium with a concentration of 1 μCi/well. After 12 hours, the cells were collected and the amount of radioactivity in the DNA was measured.

For experiment [4], the system named is T-cells. The experiment is described as follows: ConA-induced T-cell proliferation, [3H]-thymidine incorporation. It counts as cell-based, C57BL/6 mouse. Particulars: 1 μg/ml ConA; 3, 10, 30 ng/ml compound. Here is the method: as §1
T-cells were separated from the spleen of the C57BL/6 mouse for the experiment. 1 μg/ml ConA and 10 unit/ml IL-2 were used to generate the proliferation of T-cells. In the control group, 1 μg/ml ConA induced the proliferation of T-cells. […] After 12 hours, the cells were collected and the amount of radioactivity in the DNA was measured.
T-cells were separated from the spleen of the C57BL/6 mouse for the experiment. […] After 12 hours, the cells were collected and the amount of radioactivity in the DNA was measured. […]
Prodigiosin was melted in DMSO and added to the culture medium in a manner to achieve a final concentration of 3, 10, 30 ng/ml. […] After 12 hours, the cells were collected and the amount of radioactivity in the DNA was measured. […]

Experiment [5] deals with acute graft-versus-host disease. The experiment is described as follows: Mouse survival in acute graft-versus-host disease after bone marrow transplantation. It is filed as in vivo, Balb/c mouse. Particulars: 1 mg/kg, peritoneal injections every other day.
Description: as §2

Each structure is given as a SMILES string. Entries after “also recorded” stand apart in the source; their conditions may differ.

Turning to `CCCCCC1=C/C(=C/c2[nH]c(-c3ccc[nH]3)cc2OC)N=C1C` [prodigiosin], in experiment [1], the “effect on expression of IL-2 receptor mRNA” value is on record as “efficiently suppressed the expression of IL-2 mRNA”. Moreover, in the experiment with B-cells, the “effect on proliferation of B-cells” value is “could not suppress the proliferation of B-cells”. Besides, in the experiment with IL-2 mRNA, the “effect on expression of IL-2 mRNA” value is “did not influence the expression of IL-2 mRNA”. Further, the “effect on IL-2-dependent T-cell proliferation” value in the experiment with IL-2 dependent T-cells is “did not suppress the T-cell proliferation by IL-2”. In addition, the “changes in weight of the mice” value in experiment [2] is reported as “recovered normal weight by the 14th day”. Besides, the “effect of added IL-2 on the suppression of T-cell proliferation” value with T-cells [3] is on record as “did not suppress the excessive amount of IL-2 that was added from the outside”. Also, the “effect on proliferation of T-cells induced by ConA” value in the experiment on T-cells [4] was “selectively suppressed the proliferation of T-cells; also recorded: suppressed T-cells proliferated by ConA”. Moreover, in experiment [5] (control group 50% died by day 6), the “Balb/c mice died six days after the cell transplantation” value amounted to 35%. The “mice survived through to the end of the experiment” value in experiment [5] (observed for 14 days, all control mice died by the 10th day) is 65%.
